Reference: patent US20090270350A1, “Pyridinone Pyrazole Urea and Pyrimidinone Pyrazole Urea Derivatives” (PFIZER INC., priority 2006, published 2009)
pIC50: −log10 of the molar value.

Each compound was assayed against p38α (Homo sapiens, UniProt Q16539) (assay: p38α/MK2 cascade assay). Conditions: Table 2; same p38α/MK2 cascade assay; 40 minutes preincubation; read-out: p38a/MK2 Cascade 40 min Pre-Incuabtion (% Inhibition): IC50.
Format: biochemical
Method in brief: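 In a cascade format, p38α was preincubated 40 min with inhibitor (1000–0.05 nM) before adding 1 nM nonactive MK2 (54-400), 5 μM MgATP and 0.5 μM FITC-Hsp27 peptide. Reaction ran 60 min in HEPES pH 7.5 with MgCl2, DTT, 2% DMSO, then EDTA-quenched. Peptide phosphorylation was measured by Caliper mobility shift to give IC50.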

Sequence of p38α (Q16539 whole entry): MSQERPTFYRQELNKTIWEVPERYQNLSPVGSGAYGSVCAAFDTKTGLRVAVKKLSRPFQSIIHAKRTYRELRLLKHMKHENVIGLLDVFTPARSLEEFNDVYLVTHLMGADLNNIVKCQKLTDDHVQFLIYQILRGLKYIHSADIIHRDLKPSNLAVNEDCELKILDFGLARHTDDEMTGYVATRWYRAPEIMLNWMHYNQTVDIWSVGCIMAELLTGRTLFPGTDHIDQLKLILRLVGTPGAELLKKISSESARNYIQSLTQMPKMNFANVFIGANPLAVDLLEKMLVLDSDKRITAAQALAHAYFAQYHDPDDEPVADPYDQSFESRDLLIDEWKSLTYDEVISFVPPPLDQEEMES

Compound | pIC50
COC(=O)c1ccc(C)c(-n2c(C)cc(OCc3ccccc3CNC(=O)Nc3cc(C(C)(C)C)nn3-c3cccc(OCCO)c3)c(Cl)c2=O)c1 [Example 209, methyl 3-[4-{[2-({[({3-tert-butyl-1-[3-(2-hydroxyethoxy)-phenyl]-1H-pyrazol-5-yl}amino)carbonyl]-amino}methyl)-benzyl]oxy}-3-chloro-6-methyl-2-oxopyridin-1(2H)-yl]-4-methylbenzoate] | 8.42
Cc1ccc(C(=O)NCCO)cc1-n1c(C)cc(OCc2ccccc2CNC(=O)Nc2cc(C(C)(C)C)nn2-c2cccc(OCCO)c2)c(Cl)c1=O [Example 210, 3-[4-{[2-({[({3-tert-butyl-1-[3-(2-hydroxyethoxy)phenyl]-1H-pyrazol-5-yl}amino)carbonyl]amino}methyl)-benzyl]oxy}-3-chloro-6-methyl-2-oxopyridin-1(2H)-yl]-N-(2-hydroxyethyl)-4-methylbenzamide] | 8.54
CNC(=O)c1ccc(C)c(-n2c(C)cc(OCc3ccccc3CNC(=O)Nc3cc(C(C)(C)C)nn3-c3cccc(OCCO)c3)c(Cl)c2=O)c1 [Example 211, 3-[4-{[2-({[({3-tert-butyl-1-[3-(2-hydroxyethoxy)phenyl]-1H-pyrazol-5-yl}amino)carbonyl]amino}methyl)benzyl]oxy}-3-chloro-6-methyl-2-oxopyridin-1(2H)-yl]-N,4-dimethylbenzamide] | 8.59
Cc1ccc(C(=O)NCC(O)CO)cc1-n1c(C)cc(OCc2ccccc2CNC(=O)Nc2cc(C(C)(C)C)nn2-c2cccc(OCCO)c2)c(Cl)c1=O (stereo not drawn) [Example 212, 3-[4-{[2-({[({3-tert-butyl-1-[3-(2-hydroxyethoxy)phenyl]-1H-pyrazol-5-yl}amino)carbonyl]amino}methyl)benzyl]oxy}-3-chloro-6-methyl-2-oxopyridin-1(2H)-yl]-N-(2,3-dihydroxypropyl)-4-methylbenzamide] | 8.74
COC(=O)c1ccc(C)c(-n2c(C)cc(OCc3ccccc3CNC(=O)Nc3cc(C(C)(C)C)nn3-c3ccc(O)cc3)c(Cl)c2=O)c1 [Example 213, methyl 3-{4-[(2-{[({[3-tert-butyl-1-(4-hydroxyphenyl)-1H-pyrazol-5-yl]amino}carbonyl)amino]methyl}benzyl)oxy]-3-chloro-6-methyl-2-oxopyridin-1(2H)-yl}-4-methylbenzoate] | 8.40
CNC(=O)c1ccc(C)c(-n2c(C)cc(OCc3ccccc3CNC(=O)Nc3cc(C(C)(C)C)nn3-c3ccc(O)cc3)c(Cl)c2=O)c1 [Example 214, 3-{4-[(2-{[({[3-tert-butyl-1-(4-hydroxyphenyl)-1H-pyrazol-5-yl]amino}carbonyl)amino]methyl}benzyl)oxy]-3-chloro-6-methyl-2-oxopyridin-1(2H)-yl}-N,4-dimethylbenzamide] | 8.68
COc1cccc(Cn2c(C)cc(OCc3ccccc3CNC(=O)Nc3cc(C(C)(C)C)nn3-c3ccc(O)c(Cl)c3)c(Cl)c2=O)c1 [Example 215, 1-[3-tert-butyl-1-(3-chloro-4-hydroxyphenyl)-1H-pyrazol-5-yl]-3-[2-({[3-chloro-1-(3-methoxy-benzyl)-6-methyl-2-oxo-1,2-dihydropyridin-4-yl]oxy}methyl)-benzyl]urea] | 8.10
Cc1ccc(C(=O)NCCO)cc1-n1c(C)cc(OCc2ccccc2CNC(=O)Nc2cc(C(C)(C)C)nn2-c2ccc(O)cc2)c(Cl)c1=O [Example 216, 3-{4-[(2-{[({[3-tert-butyl-1-(4-hydroxyphenyl)-1H-pyrazol-5-yl]amino}carbonyl)amino]methyl}benzyl)oxy]-3-chloro-6-methyl-2-oxopyridin-1(2H)-yl}-N-(2-hydroxyethyl)-4-methyl-benzamide] | 8.74
Cc1ccc(C(=O)NCC(O)CO)cc1-n1c(C)cc(OCc2ccccc2CNC(=O)Nc2cc(C(C)(C)C)nn2-c2ccc(O)cc2)c(Cl)c1=O (stereo not drawn) [Example 217, 3-{4-[(2-{[({[3-tert-butyl-1-(4-hydroxyphenyl)-1H-pyrazol-5-yl]amino}carbonyl)amino]methyl}benzyl)oxy]-3-chloro-6-methyl-2-oxopyridin-1(2H)-yl}-N-(2,3-dihydroxypropyl)-4-methylbenzamide] | 8.82
COCCNC(=O)c1ccc(C)c(-n2c(C)cc(OCc3ccccc3CNC(=O)Nc3cc(C(C)(C)C)nn3-c3ccc(O)cc3)c(Cl)c2=O)c1 [Example 218, 3-{4-[(2-{[({[3-tert-butyl-1-(4-hydroxyphenyl)-1H-pyrazol-5-yl]amino}carbonyl)amino]methyl}benzyl)oxy]-3-chloro-6-methyl-2-oxopyridin-1(2H)-yl}-N-(2-methoxyethyl)-4-methyl-benzamide] | 8.74
Cc1ccc(C(=O)NCC(N)=O)cc1-n1c(C)cc(OCc2ccccc2CNC(=O)Nc2cc(C(C)(C)C)nn2-c2ccc(O)cc2)c(Cl)c1=O [Example 219, N-(2-amino-2-oxoethyl)-3-{4-[(2-{[({[3-tert-butyl-1-(4-hydroxyphenyl)-1H-pyrazol-5-yl]amino}carbonyl)amino]-methyl}benzyl)oxy]-3-chloro-6-methyl-2-oxopyridin-1(2H)-yl}-4-methylbenzamide] | 9.05
Cc1ccc(C(=O)N[C@@H](C)C(N)=O)cc1-n1c(C)cc(OCc2ccccc2CNC(=O)Nc2cc(C(C)(C)C)nn2-c2ccc(O)cc2)c(Cl)c1=O [Example 220, N-[(1S)-2-amino-1-methyl-2-oxoethyl]-3-{4-[(2-{[({[3-tert-butyl-1-(4-hydroxyphenyl)-1H-pyrazol-5-yl]amino}carbonyl)-amino]methyl}benzyl)oxy]-3-chloro-6-methyl-2-oxopyridin-1(2H)-yl}-4-methylbenzamide] | 8.85
COC(=O)c1ccc(C)c(-n2c(C)cc(OCc3ccccc3CNC(=O)Nc3cc(C(C)(C)C)nn3-c3ccc(Cl)c(O)c3)c(Cl)c2=O)c1 [Example 221, methyl 3-{4-[(2-{[({[3-tert-butyl-1-(4-chloro-3-hydroxy-phenyl)-1H-pyrazol-5-yl]amino}carbonyl)amino]-methyl}-benzyl)oxy]-3-chloro-6-methyl-2-oxopyridin-1(2H)-yl}-4-methylbenzoate] | 7.98
COC(=O)c1ccc(C)c(-n2c(C)cc(OCc3ccccc3CNC(=O)Nc3cc(C(C)(C)C)nn3-c3ccc(O)c(Cl)c3)c(Cl)c2=O)c1 [Example 222, methyl 3-{4-[(2-{[({[3-tert-butyl-1-(3-chloro-4-hydroxy-phenyl)-1H-pyrazol-5-yl]amino}carbonyl)amino]-methyl}-benzyl)oxy]-3-chloro-6-methyl-2-oxopyridin-1(2H)-yl}-4-methylbenzoate] | 8.02
CNC(=O)c1ccc(C)c(-n2c(C)cc(OCc3ccccc3CNC(=O)Nc3cc(C(C)(C)C)nn3-c3ccc(O)c(Cl)c3)c(Cl)c2=O)c1 [Example 223, 3-{4-[(2-{[({[3-tert-butyl-1-(3-chloro-4-hydroxyphenyl)-1H-pyrazol-5-yl]amino}carbonyl)amino]methyl}benzyl)oxy]-3-chloro-6-methyl-2-oxopyridin-1(2H)-yl}-N,4-dimethylbenzamide] | 8.34
Cc1ccc(C(=O)NCCO)cc1-n1c(C)cc(OCc2ccccc2CNC(=O)Nc2cc(C(C)(C)C)nn2-c2ccc(O)c(Cl)c2)c(Cl)c1=O [Example 224, 3-{4-[(2-{[({[3-tert-butyl-1-(3-chloro-4-hydroxyphenyl)-1H-pyrazol-5-yl]amino}carbonyl)amino]methyl}benzyl)oxy]-3-chloro-6-methyl-2-oxopyridin-1(2H)-yl}-N-(2-hydroxyethyl)-4-methylbenzamide] | 8.49
COCCNC(=O)c1ccc(C)c(-n2c(C)cc(OCc3ccccc3CNC(=O)Nc3cc(C(C)(C)C)nn3-c3ccc(O)c(Cl)c3)c(Cl)c2=O)c1 [Example 225, 3-{4-[(2-{[({[3-tert-butyl-1-(3-chloro-4-hydroxyphenyl)-1H-pyrazol-5-yl]amino}carbonyl)amino]methyl}benzyl)oxy]-3-chloro-6-methyl-2-oxopyridin-1(2H)-yl}-N-(2-methoxyethyl)-4-methylbenzamide] | 8.52
CNC(=O)c1ccc(C)c(-n2c(C)cc(OCc3ccccc3CNC(=O)Nc3cc(C(C)(C)C)nn3-c3ccc(Cl)c(O)c3)c(Cl)c2=O)c1 [Example 226, 3-{4-[(2-{[({[3-tert-butyl-1-(4-chloro-3-hydroxyphenyl)-1H-pyrazol-5-yl]amino}carbonyl)amino]methyl}benzyl)oxy]-3-chloro-6-methyl-2-oxopyridin-1(2H)-yl}-N,4-dimethylbenzamide] | 8.44
Cc1ccc(C(=O)NCC(O)CO)cc1-n1c(C)cc(OCc2ccccc2CNC(=O)Nc2cc(C(C)(C)C)nn2-c2ccc(O)c(Cl)c2)c(Cl)c1=O (stereo not drawn) [Example 227, 3-{4-[(2-{[({[3-tert-butyl-1-(3-chloro-4-hydroxyphenyl)-1H-pyrazol-5-yl]amino}carbonyl)amino]methyl}benzyl)oxy]-3-chloro-6-methyl-2-oxopyridin-1(2H)-yl}-N-(2,3-dihydroxy-propyl)-4-methylbenzamide] | 8.70
Cc1ccc(C(=O)NCCO)cc1-n1c(C)cc(OCc2ccccc2CNC(=O)Nc2cc(C(C)(C)C)nn2-c2ccc(Cl)c(O)c2)c(Cl)c1=O [Example 228, 3-{4-[(2-{[({[3-tert-butyl-1-(4-chloro-3-hydroxyphenyl)-1H-pyrazol-5-yl]amino}carbonyl)amino]methyl}benzyl)oxy]-3-chloro-6-methyl-2-oxopyridin-1(2H)-yl}-N-(2-hydroxyethyl)-4-methylbenzamide] | 8.68
Cc1ccc(C(=O)NCCN(C)C)cc1-n1c(C)cc(OCc2ccccc2CNC(=O)Nc2cc(C(C)(C)C)nn2-c2ccc(O)c(Cl)c2)c(Cl)c1=O [Example 229, 3-{4-[(2-{[({[3-tert-butyl-1-(3-chloro-4-hydroxyphenyl)-1H-pyrazol-5-yl]amino}carbonyl)amino]methyl}benzyl)oxy]-3-chloro-6-methyl-2-oxopyridin-1(2H)-yl}-N-[2-(dimethylamino)-ethyl]-4-methylbenzamide] | 8.64
